{"source": "patent US20250319105A1", "about": "“NEUROACTIVE STEROID FOR THE TREATMENT OF ALZHEIMER'S DISEASE” (SAGE THERAPEUTICS, INC., priority 2021, published 2025)", "key": {"[1]": {"tested_on": "participants with MCI or mild dementia due to AD", "experiment": "Open-label study: tests of executive functioning (MTT, OTS, SWM, DSST, 2-Back)", "type": "in vivo, human", "from_the_text": "(§1) Additional objectives of the study were to assess the following: • PK profile of Compound 1 following administration of multiple doses as assessed by periodic PK sampling • Change from baseline on tests of executive function. • Change from baseline on tests of learning and memory. • Verbal Recognition Memory • Paired Associates Learning • Pattern Recognition Memory • Spatial Span • Change from baseline on tests of social cognition. • Emotion Recognition Task • Emotion Bias Task • Change from baseline on tests of psychomotor function. • Change from baseline on assessments of neuropsychiatric symptoms: • Change from baseline in performance on the Montreal Cognitive Assessment • Change from baseline in Clinical Global Impressions-Severity scores • Overall scores on Clinical Global Impressions-Improvement scales • Change from baseline in Amsterdam Instrumental Activities of Daily Living • Change from baseline in exploratory peripheral biomarkers • Amyloid PET Scan\nThe tests of Executive Functioning included (1) Multitasking Test (MTT), which assesses how well the subject manages conflicting information; (2) One Touch Stockings of Cambridge (OTS), which assesses how well the subject plans, holds onto, and manipulates information to solve a puzzle; (3) Spatial Working Memory (SWM), which assesses how well the subject develops and uses a strategy to find hidden information; (4) Digit Symbol Substitution Task (DSST), which assesses how efficiently can the subject complete a demanding task (daily measure); and (5) Two-Back Test (NBX), which asks is the symbol the same as that shown two symbols ago."}, "[2]": {"experiment": "Open-label study: PK sampling, plasma concentrations", "type": "in vivo, human", "details": "Day 7 and Day 14; 3 mg once daily oral with a meal", "from_the_text": "as §1"}, "[3]": {"tested_on": "participants with MCI or mild dementia due to AD", "experiment": "Open-label study: safety and tolerability (TEAEs, laboratory, vital signs, ECG)", "details": "3 mg once daily oral for 14 days", "quoted_text": "The Study comprised a 2-week screening period, a 1-week baseline period, a 2-week open-label treatment period, and a 2-week follow-up period. […] During the 1-week pre-treatment baseline period, patients underwent repeated cognitive testing using a comprehensive battery of tests to establish a robust cognitive baseline across multiple domains of cognitive function.\nThe key inclusion criteria for the subjects were as follows: • Be between the ages of 50 and 80 years, inclusive, at Screening • Meet the following criteria for MCI or mild dementia due to AD at Screening: • A memory complaint reported by the participant or his/her study partner • A CDR score of 0.5 to 1.0 (inclusive) with a memory box score ≥0.5 • Essentially preserved activities of daily living, in the opinion of the investigator. • Brain MRI report, obtained within the 2 years preceding the Baseline Period, that is consistent with the diagnosis of AD-MCI with no clinically significant findings of non-AD pathology that could account for the observed cognitive impairment • Have a score of 15 to 24 (inclusive) on the MoCA at Screening • Have an estimated premorbid IQ≥85 (as assessed by the Test of Premorbid Functioning, performed at Screening\nThe Primary objective of the study was to assess (1) the incidence of Treatment-Emergent Adverse Event (TEAE).\nThe secondary objectives of the study were to assess: • the percentage of Participants With Clinically Significant Changes in Vital Sign Measurements, clinical laboratory analytes, electrocardiograms (ECGs), and responses on the Columbia-Suicide Severity Rating Scale (C-SSRS)."}, "[4]": {"tested_on": "participants with MCI or mild dementia due to AD", "experiment": "Open-label study: global cognition, Montreal Cognitive Assessment (MoCA)", "type": "in vivo, human", "details": "3 mg once daily oral for 14 days", "from_the_text": "as §1"}, "[5]": {"tested_on": "participants with MCI or mild dementia due to AD", "experiment": "Open-label study: tests of attention and psychomotor performance (RTI, PVT)", "type": "in vivo, human", "details": "3 mg once daily oral for 14 days", "from_the_text": "as §1\nThe tests of Attention and Psychomotor Performance included Reaction Time (RTI), which assesses how fast the subject can respond to a stimulus (weekly measure); Psychomotor Vigilance Task (PVT), which assesses how fast can the subject respond to a stimulus (daily measure)."}, "[6]": {"tested_on": "participants with MCI or mild dementia due to AD", "experiment": "Open-label study: tests of learning and memory (PAL, PRM, VRM, Spatial Span)", "type": "in vivo, human", "from_the_text": "as §1\nThe tests of Learning and Memory included Paired Associates Learning (PAL), which assesses how well the subject remembers the location of hidden objects; Pattern Recognition Memory (PRM), which assesses how well the subject remembers a pattern; and Verbal Recognition Memory […], which assesses how well the subject stores and retrieves verbal information."}, "[7]": {"details": "3 mg once daily oral for 14 days, change from baseline, Clinic/Weekly"}}, "note": "“Also recorded” adds a separate entry of the source.", "data": [{"smiles": "C[C@H](CC[C@](C)(O)C(F)(F)F)[C@H]1CC[C@H]2[C@@H]3CC=C4C[C@@](C)(O)CC[C@]4(C)[C@H]3CC[C@]12C", "note": "[Compound 1]", "values": [{"measurement": "2-Back Test, Directional Trend", "setting": "[1]; [7]", "result": "numerical improvement"}, {"measurement": "Multitasking, Directional Trend", "setting": "[1]; [7]", "result": "numerical improvement"}, {"measurement": "One Touch Stockings, Directional Trend", "setting": "[1]; [7]", "result": "numerical improvement"}, {"measurement": "Spatial working Memory, Directional Trend", "setting": "[1]; [7]", "result": "numerical improvement"}, {"measurement": "Digit Symbol Substitution, Directional Trend", "setting": "[1]; 3 mg once daily oral for 14 days, change from baseline, Mobile/Daily", "result": "numerical improvement"}, {"measurement": "Performance from baseline on all tests of executive functioning", "setting": "[1]; Day 14, 3 mg once daily oral", "result": "improved performance"}, {"measurement": "Plasma concentrations versus predicted range", "setting": "[2]", "result": "consistent with the predicted range"}, {"measurement": "Clinically significant laboratory abnormalities", "setting": "[3]; 26 enrolled subjects", "result": "No clinically significant laboratory abnormalities"}, {"measurement": "Clinically significant vital sign or ECG abnormalities", "setting": "[3]; 26 enrolled subjects", "result": "No clinically significant vital sign or ECG abnormalities"}, {"measurement": "Number of TEAEs", "setting": "[3]; 26 enrolled subjects", "result": 8}, {"measurement": "Severe TEAEs, SAEs, or deaths", "setting": "[3]; 26 enrolled subjects", "result": "No severe TEAEs, SAEs, or deaths"}, {"measurement": "TEAEs resulting in study drug discontinuation or withdrawal from the study", "setting": "[3]; 26 enrolled subjects", "result": "No TEAEs resulted in study drug discontinuation or withdrawal from the study"}, {"measurement": "Mild TEAEs, n (%)", "setting": "[3]; of 8 TEAEs", "result": "4 (50%)"}, {"measurement": "Moderate TEAEs, n (%)", "setting": "[3]; of 8 TEAEs", "result": "4 (50%)"}, {"measurement": "Number of TEAEs considered related to study treatment", "setting": "[3]; of 8 TEAEs", "result": 6}, {"measurement": "Number of subjects who experienced TEAEs", "setting": "[3]; of the 26 enrolled subjects", "result": 7}, {"measurement": "MoCA (Global), Directional Trend", "setting": "[4]; change from baseline, Monthly", "result": "Improvement"}, {"measurement": "MoCA score, mean CFB (change from baseline)", "setting": "[4]; CFB at Day 28, n = 20", "result": 2.3}, {"measurement": "MoCA score, mean", "setting": "[4]; Day 28, n = 20, baseline mean 20.5", "result": "(22.8"}, {"measurement": "Improvement in global cognition, assessed via MoCA", "setting": "[4]; statistically significant", "result": "+2.3 pts"}, {"measurement": "Changes in attention or psychomotor processing", "setting": "[5]", "result": "No changes"}, {"measurement": "Reaction Time, Directional Trend", "setting": "[5]; change from baseline, Clinic/Weekly", "result": "No Change"}, {"measurement": "Psychomotor Vigilance Task, Directional Trend", "setting": "[5]; change from baseline, Mobile/Daily", "result": "No Change"}, {"measurement": "Paired Associates Learning, Directional Trend", "setting": "[6]; [7]", "result": "no change (or slight worsening); also recorded: Mixed"}, {"measurement": "Pattern Recognition Memory, Directional Trend", "setting": "[6]; [7]", "result": "numerical improvement"}, {"measurement": "Spatial Span, Directional Trend", "setting": "[6]; [7]", "result": "no change (or slight worsening); also recorded: Mixed"}, {"measurement": "Verbal Recognition Memory, Directional Trend", "setting": "[6]; [7]", "result": "Improvement"}, {"measurement": "Performance on tests of learning and memory", "setting": "[6]; Day 14 vs baseline, 3 mg once daily oral", "result": "additional signals suggesting improved performance"}]}]}
